# Test results taken from patent US20260226493A1, “HERBICIDE RESISTANT PLANTS” (SYNGENTA CROP PROTECTION AG, priority 2023, published 2026).
# Key:
# Test in all cases: BIO3-BIO1 mutant enzyme activity in the presence of herbicide, percentage inhibition (fluorometric DAPA assay)
# Format in all cases: biochemical
# Settings in all cases: read-out: percentage inhibition
# [1] = target: T1, Arabidopsis thaliana BIO3-BIO1 (BioDA) mutants (Arabidopsis thaliana, UniProt B0F481, P510C)
# T1 construct: with the predicted N-terminal mitochondrial transit peptide removed; 6xHis-tag (N); thrombin cleavage site (N); made in house; host or cells: E. coli BL21 (DE3) bioA
# Procedure, shortened: (§1)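 Percentage inhibition compares activity at one of three herbicide concentrations against DMSO, from o-phthalaldehyde-derivatised DAPA fluorescence (ex 410, em 470 nm). Purified N-His BIO3-BIO1 variants (50 nM, E. coli-expressed) saw herbicide 10 min at 20 °C in pH 8.6 EPPS buffer, then 20 μM KAPA plus 100 μM spermidine for 75 min at 20 °C.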
# [2] = target: T2, Arabidopsis thaliana BIO3-BIO1 (BioDA) mutants (Arabidopsis thaliana, UniProt B0F481, F348A)
# T2 construct: with the predicted N-terminal mitochondrial transit peptide removed; 6xHis-tag (N); thrombin cleavage site (N); made in house; host or cells: E. coli BL21 (DE3) bioA
# Procedure, shortened: as §1
# [3] = target: T3, Arabidopsis thaliana BIO3-BIO1 (BioDA) mutants (Arabidopsis thaliana, UniProt B0F481, P421E)
# T3 construct: with the predicted N-terminal mitochondrial transit peptide removed; 6xHis-tag (N); thrombin cleavage site (N); made in house; host or cells: E. coli BL21 (DE3) bioA
# Procedure, shortened: as §1
# [4] = target: T4, Arabidopsis thaliana BIO3-BIO1 (BioDA) mutants (Arabidopsis thaliana, UniProt B0F481, A609H)
# T4 construct: with the predicted N-terminal mitochondrial transit peptide removed; 6xHis-tag (N); thrombin cleavage site (N); made in house; host or cells: E. coli BL21 (DE3) bioA
# Procedure, shortened: as §1
# [5] = target: T5, Arabidopsis thaliana BIO3-BIO1 (BioDA) mutants (Arabidopsis thaliana, UniProt B0F481, F348C)
# T5 construct: with the predicted N-terminal mitochondrial transit peptide removed; 6xHis-tag (N); thrombin cleavage site (N); made in house; host or cells: E. coli BL21 (DE3) bioA
# Procedure, shortened: as §1
# [6] = target: T6, Arabidopsis thaliana BIO3-BIO1 (BioDA) mutants (Arabidopsis thaliana, UniProt B0F481, P510V)
# T6 construct: with the predicted N-terminal mitochondrial transit peptide removed; 6xHis-tag (N); thrombin cleavage site (N); made in house; host or cells: E. coli BL21 (DE3) bioA
# Procedure, shortened: as §1
# [7] = target: T7, Arabidopsis thaliana BIO3-BIO1 (BioDA) mutants (Arabidopsis thaliana, UniProt B0F481, T512R)
# T7 construct: with the predicted N-terminal mitochondrial transit peptide removed; 6xHis-tag (N); thrombin cleavage site (N); made in house; host or cells: E. coli BL21 (DE3) bioA
# Procedure, shortened: as §1
# [8] = target: T8, Arabidopsis thaliana BIO3-BIO1 (BioDA) mutants (Arabidopsis thaliana, UniProt B0F481, Q517Y)
# T8 construct: with the predicted N-terminal mitochondrial transit peptide removed; 6xHis-tag (N); thrombin cleavage site (N); made in house; host or cells: E. coli BL21 (DE3) bioA
# Procedure, shortened: as §1
# [9] = target: T9, Arabidopsis thaliana BIO3-BIO1 (BioDA) mutants (Arabidopsis thaliana, UniProt B0F481, W391L)
# T9 construct: with the predicted N-terminal mitochondrial transit peptide removed; 6xHis-tag (N); thrombin cleavage site (N); made in house; host or cells: E. coli BL21 (DE3) bioA
# Procedure, shortened: as §1
# [10] = target: T10, Arabidopsis thaliana BIO3-BIO1 (BioDA) mutants (Arabidopsis thaliana, UniProt B0F481, T512C)
# T10 construct: with the predicted N-terminal mitochondrial transit peptide removed; 6xHis-tag (N); thrombin cleavage site (N); made in house; host or cells: E. coli BL21 (DE3) bioA
# Procedure, shortened: as §1
# [11] = target: T11, Arabidopsis thaliana BIO3-BIO1 (BioDA) mutants (Arabidopsis thaliana, UniProt B0F481, S509L)
# T11 construct: with the predicted N-terminal mitochondrial transit peptide removed; 6xHis-tag (N); thrombin cleavage site (N); made in house; host or cells: E. coli BL21 (DE3) bioA
# Procedure, shortened: as §1
# [12] = target: T12, Arabidopsis thaliana BIO3-BIO1 (BioDA) mutants (Arabidopsis thaliana, UniProt B0F481, Y511Q)
# T12 construct: with the predicted N-terminal mitochondrial transit peptide removed; 6xHis-tag (N); thrombin cleavage site (N); made in house; host or cells: E. coli BL21 (DE3) bioA
# Procedure, shortened: as §1
# T10 sequence (B0F481 23-833 T512C): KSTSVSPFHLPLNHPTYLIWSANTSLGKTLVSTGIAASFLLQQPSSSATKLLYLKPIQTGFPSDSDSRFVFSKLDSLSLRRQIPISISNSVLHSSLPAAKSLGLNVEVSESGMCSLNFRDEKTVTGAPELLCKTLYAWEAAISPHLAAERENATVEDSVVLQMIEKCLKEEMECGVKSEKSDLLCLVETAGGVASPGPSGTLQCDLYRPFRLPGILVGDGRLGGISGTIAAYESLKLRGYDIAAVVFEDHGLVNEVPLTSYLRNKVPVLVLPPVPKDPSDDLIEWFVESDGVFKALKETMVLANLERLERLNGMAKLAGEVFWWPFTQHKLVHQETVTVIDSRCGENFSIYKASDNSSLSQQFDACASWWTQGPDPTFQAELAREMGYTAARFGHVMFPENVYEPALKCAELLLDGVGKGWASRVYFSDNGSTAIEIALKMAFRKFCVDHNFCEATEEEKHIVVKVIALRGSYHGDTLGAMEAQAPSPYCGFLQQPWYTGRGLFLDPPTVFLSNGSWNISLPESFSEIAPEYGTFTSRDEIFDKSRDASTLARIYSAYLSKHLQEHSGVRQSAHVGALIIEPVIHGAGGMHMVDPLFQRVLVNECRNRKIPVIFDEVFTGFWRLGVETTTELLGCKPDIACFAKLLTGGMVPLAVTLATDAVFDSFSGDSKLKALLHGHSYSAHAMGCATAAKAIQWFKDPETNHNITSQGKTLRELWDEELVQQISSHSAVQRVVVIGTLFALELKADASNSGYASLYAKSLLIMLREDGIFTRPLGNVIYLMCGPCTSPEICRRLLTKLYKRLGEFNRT
# T3 sequence (B0F481 23-833 P421E): as the sequence (B0F481 23-833 T512C) above, with P399E, C490T counted along it
# T9 sequence (B0F481 23-833 W391L): as the sequence (B0F481 23-833 T512C) above, with W369L, C490T counted along it
# T11 sequence (B0F481 23-833 S509L): as the sequence (B0F481 23-833 T512C) above, with S487L, C490T counted along it
# T6 sequence (B0F481 23-833 P510V): as the sequence (B0F481 23-833 T512C) above, with P488V, C490T counted along it
# T1 sequence (B0F481 23-833 P510C): as the sequence (B0F481 23-833 T512C) above, with P488C, C490T counted along it
# T2 sequence (B0F481 23-833 F348A): as the sequence (B0F481 23-833 T512C) above, with F326A, C490T counted along it
# T12 sequence (B0F481 23-833 Y511Q): as the sequence (B0F481 23-833 T512C) above, with Y489Q, C490T counted along it
# T8 sequence (B0F481 23-833 Q517Y): as the sequence (B0F481 23-833 T512C) above, with C490T, Q495Y counted along it
# T5 sequence (B0F481 23-833 F348C): as the sequence (B0F481 23-833 T512C) above, with F326C, C490T counted along it
# T4 sequence (B0F481 23-833 A609H): as the sequence (B0F481 23-833 T512C) above, with C490T, A587H counted along it
# T7 sequence (B0F481 23-833 T512R): as the sequence (B0F481 23-833 T512C) above, with C490R counted along it
SMILES,inhibition at 0.2 µM [7],inhibition at 1 µM [7],inhibition at 5 µM [7],inhibition at 0.2 µM [1],inhibition at 1 µM [1],inhibition at 5 µM [1],inhibition at 0.2 µM [2],inhibition at 1 µM [2],inhibition at 5 µM [2],inhibition at 0.2 µM [3],inhibition at 1 µM [3],inhibition at 5 µM [3],inhibition at 1 µM [4],inhibition at 1 µM [5],inhibition at 1 µM [8],inhibition at 1 µM [9],inhibition at 1 µM [10],inhibition at 1 µM [6],inhibition at 1 µM [11],inhibition at 1 µM [12],other results
"CCn1c(Cn2ccc(C(F)(F)F)n2)cc(=O)c(C(=O)O)c1-c1ccc(Cl)c(Cl)c1 [Compound L, 2-(3,4-dichlorophenyl)-1-ethyl-4-oxo-6-[[3-(trifluoromethyl)pyrazol-1-yl]methyl]pyridine-3-carboxylic acid]",–,–,–,–,–,–,–,–,–,–,–,–,–,–,–,–,–,–,–,–,inhibition at 0.01 µM [1]: 0%; inhibition at 0.075 µM [1]: 38%; inhibition at 0.5 µM [1]: 77%; inhibition at 0.01 µM [2]: 1%; inhibition at 0.075 µM [2]: 0%; inhibition at 0.5 µM [2]: 3%; inhibition at 0.01 µM [3]: 0%; inhibition at 0.075 µM [3]: 0%; inhibition at 0.5 µM [3]: 41%; inhibition at 0.01 µM [4]: 0%; inhibition at 0.075 µM [4]: 0%; inhibition at 0.5 µM [4]: 0%; inhibition at 0.01 µM [5]: 0%; inhibition at 0.075 µM [5]: 0%; inhibition at 0.5 µM [5]: 29%; inhibition at 0.01 µM [6]: 0%; inhibition at 0.075 µM [6]: 0%; inhibition at 0.5 µM [6]: 52%
"CCn1c(C)c(-c2ccc(F)cc2F)c(=O)c(C(=O)O)c1-c1ccc(Cl)c(Cl)c1 [Compound C, 2-(3,4-dichlorophenyl)-5-(2,4-difluorophenyl)-1-ethyl-6-methyl-4-oxo-pyridine-3-carboxylic acid]",74%,95%,99%,13%,53%,78%,7%,0%,1%,37%,31%,0%,7%,0%,86%,29%,83%,21%,85%,97%,inhibition at 0.2 µM [4]: 0%; inhibition at 5 µM [4]: 20%; inhibition at 0.2 µM [5]: 0%; inhibition at 5 µM [5]: 0%; inhibition at 0.2 µM [8]: 49%; inhibition at 5 µM [8]: 97%; inhibition at 0.2 µM [9]: 23%; inhibition at 5 µM [9]: 33%; inhibition at 0.2 µM [10]: 22%; inhibition at 5 µM [10]: 97%; inhibition at 0.2 µM [6]: 0%; inhibition at 5 µM [6]: 79%; inhibition at 0.2 µM [11]: 24%; inhibition at 5 µM [11]: 99%; inhibition at 0.2 µM [12]: 78%; inhibition at 5 µM [12]: 98%
"CCOC(=O)c1nn(-c2ccc3c(c2)OC(F)(F)C(F)(F)O3)c2cccc(C(C)=O)c2c1=O [Compound A, ethyl 5-acetyl-4-oxo-1-(2,2,3,3-tetrafluoro-1,4-benzodioxin-6-yl)cinnoline-3-carboxylate]",–,82%,–,–,20%,–,–,4%,–,–,0%,–,0%,0%,52%,62%,50%,1%,6%,21%,–
"CCn1c(-c2ccc(Cl)c(Cl)c2)c(C(=O)O)c(=O)c2cc(F)ccc21 [Compound M, 2-(3,4-dichlorophenyl)-1-ethyl-6-fluoro-4-oxo-quinoline-3-carboxylic acid]",81%,95%,99%,9%,36%,69%,0%,0%,6%,0%,47%,62%,2%,3%,71%,16%,79%,0%,68%,87%,inhibition at 0.2 µM [4]: 7%; inhibition at 5 µM [4]: 25%; inhibition at 0.2 µM [5]: 14%; inhibition at 5 µM [5]: 0%; inhibition at 0.2 µM [8]: 36%; inhibition at 5 µM [8]: 90%; inhibition at 0.2 µM [9]: 18%; inhibition at 5 µM [9]: 43%; inhibition at 0.2 µM [10]: 27%; inhibition at 5 µM [10]: 95%; inhibition at 0.2 µM [6]: 0%; inhibition at 5 µM [6]: 62%; inhibition at 0.2 µM [11]: 19%; inhibition at 5 µM [11]: 94%; inhibition at 0.2 µM [12]: 54%; inhibition at 5 µM [12]: 95%
